Patent US20230366033A1, “METHODS FOR TREATING CANCERS WITH INHIBITORS TARGETING THE ROLE OF GRB2 IN DNA REPAIR” (Board of Regents, The University of Texas System, priority 2020, published 2023)

Tests used:
Type in all cases: cell-based
[1] = test system: GRB2-KO HeLa cells reconstituted with K109R mutant GRB2; experiment: SRB assay of olaparib-induced cytotoxicity; conditions: Homo sapiens, GRB2-KO cells reconstituted with K109R GRB2, sulforhodamine B assay
Text: (§1) FIGS. 7A-7F. GRB2 KO sensitizes cells to PARPi. (FIG. 7A) MRE11 depletion levels with two different shRNA (KD1 and KD2) in U2OS cells with normal level of GRB2 (Ctrl) and GRB2-knockout (KO). (FIG. 7B) DR-GFP reporter assay in MRE11 knockdown control (Ctrl) and GRB2-KO U2OS cells. (FIG. 7C) DR-GFP reporter assay in PTEN-knockdown and/or GRB2-KO U2OS cells. (FIG. 7D) SRB assay of olaparib-induced cytotoxicity in control HeLa cells, GRB2-KO cells and GRB2-KO cells reconstituted with WT or K109R mutant GRB2. IC50 values are shown. (FIG. 7E) Clonogenic assay evaluating the effect of a PARPi on colony formation of HeLa cells. Cells were treated with the indicated concentrations of the PARPi olaparib and cultured for 10 days, then the resulting colonies were visualized with crystal violet staining and counted by Gelcount instrument. Parental control (WT), GRB2-KO (KO), ^WTGRB2 (KO+GRB2) and ^K109RGRB2 (KO+K109R) reconstituted HeLa cells. For each concentration on the X-axis, the columns represent, from left to right, WT, GRB2 KO, KO+GRB2, and KO+K109R. ***, p≤0.001; NS, not significant. (FIG. 7F) Bar graph representing Annexin-V/propidium iodide combined labeling and flow cytometry analysis of olaparib-treated control (WT), GRB2-KO, reconstituted ^WTGRB2(KO+GRB2) and K109R mutant (KO+K109R) HeLa cells. Cells were treated with either DMSO or 50 μM olaparib for 72 h. For each treatment group on the X-axis, the columns represent, from left to right, WT, GRB2 KO, KO+GRB2, and KO+K109R. All data are representative of three independent experiments. The significance was analyzed by two-sided student's t-test. *, p≤0.05; **, p≤0.01; ***, p≤0.001; NS, not significant.
(§2) Cell culture. HEK293T, NIH3T3 and A431 cells (purchased from ATCC) and mouse embryonic fibroblasts (MEFs) and H2AX-KO MEFs (gifts from Andre Nussenzweig, Center for Cancer Research, National Cancer Institute) were maintained in Dulbecco's modified Eagle's high-glucose medium (DMEM). HeLa cells (ATCC) were maintained in RPMI 1640 medium, HAP1 cells (Horizon Discovery) were maintained in Iscove's Modified Dulbecco's medium. U2OS cells (ATCC) were maintained in McCoy's 5A medium. Media were supplemented with 10% (vol/vol) fetal bovine serum (FBS) and 1% antibiotic/antimycotic (Lonza) in a humidified incubator with 10% CO2. Stable HEK293T cells containing Strep-tagged GRB2 or GRB2 mutants were produced as described previously (Ahmed et al., 2013). The I-SecI reporter assay (a generous gift from Jeremy Stark, City of Hope) was performed as described previously(Gunn and Stark, 2012). The sulforhodamine B (SRB) cytotoxicity and colony formation assays were performed as described previously(Houl et al., 2019).

[2] = test system: GRB2-KO HeLa cells reconstituted with WT GRB2; experiment: SRB assay of olaparib-induced cytotoxicity; conditions: Homo sapiens, GRB2-KO cells reconstituted with WT GRB2, sulforhodamine B assay
Text: as §1, §2

GRB2-KO HeLa cells [3] = experiment: SRB assay of olaparib-induced cytotoxicity; conditions: sulforhodamine B assay
Text: as §1, §2

control HeLa cells = experiment: SRB assay of olaparib-induced cytotoxicity; conditions: Homo sapiens; WT control HeLa cells, sulforhodamine B assay
Text: as §1, §2

GRB2-KO HeLa cells [4] = experiment: Annexin V/PI staining assay, flow cytometry; conditions: 50 μM olaparib for 72 h
Text: as §1
(§3) Annexin V/PI staining assay. To determine the percentage of olaparib-induced apoptotic cells, an Annexin V-propidium iodide (PI) staining assay was used according to the standard protocol (Life Technologies). […] After incubation for 15 min at room temperature in the dark, samples were analyzed on a flow cytometer (FACSCanto IL, BD Biosciences) for the detection of Annexin V- and PI-positive subpopulations. […]

[5] = test system: K109R mutant (KO+K109R) HeLa cells; experiment: Annexin V/PI staining assay, flow cytometry; conditions: K109R GRB2 reconstituted cells, 50 μM olaparib for 72 h
Text: as §1, §3

control (WT) HeLa cells = experiment: Annexin V/PI staining assay, flow cytometry; conditions: 50 μM olaparib for 72 h
Text: as §1, §3

GRB2-KO HeLa cells [6] = experiment: Clonogenic survival assay with olaparib; conditions: cultured for 10 days
Text: as §1, with “significant. […]” for “significant. (FIG. 7F) Bar graph representing Annexin-V/propidium iodide combined labeling and flow cytometry analysis of olaparib-treated control (WT), GRB2-KO, reconstituted ^WTGRB2(KO+GRB2) and K109R mutant (KO+K109R) HeLa cells. Cells were treated with either DMSO or 50 μM olaparib for 72 h. For each treatment group on the X-axis, the columns represent, from left to right, WT, GRB2 KO, KO+GRB2, and KO+K109R. All data are representative of three independent experiments.”, “significant. […]” for “significant.”

[7] = test system: K109R GRB2 reconstituted HeLa cells; experiment: Clonogenic survival assay with olaparib; conditions: cultured for 10 days
Text: as §1, with “significant. […]” for “significant. (FIG. 7F) Bar graph representing Annexin-V/propidium iodide combined labeling and flow cytometry analysis of olaparib-treated control (WT), GRB2-KO, reconstituted ^WTGRB2(KO+GRB2) and K109R mutant (KO+K109R) HeLa cells. Cells were treated with either DMSO or 50 μM olaparib for 72 h. For each treatment group on the X-axis, the columns represent, from left to right, WT, GRB2 KO, KO+GRB2, and KO+K109R. All data are representative of three independent experiments.”, “significant. […]” for “significant.”

O=C(c1cc(Cc2n[nH]c(=O)c3ccccc23)ccc1F)N1CCN(C(=O)C2CC2)CC1 [olaparib]
IC50 [1]: 20 ± 3 µM | IC50 [2]: 164 ± 47 µM | IC50 (GRB2-KO HeLa cells [3]; Homo sapiens, HeLa, GRB2-KO cells): 18 ± 2.9 µM | sensitivity to olaparib, GRB2-KO cells versus WT control cells (GRB2-KO HeLa cells [3]): 7 times | IC50 (control HeLa cells): 124 ± 41 µM | olaparib-induced apoptosis (GRB2-KO HeLa cells [4]): 60% | olaparib-induced apoptosis phenotype [5]: failed to rescue the phenotype | olaparib-induced apoptosis (control (WT) HeLa cells): 20% | colony formation in response to olaparib (GRB2-KO HeLa cells [6]): severe reduction in colony formation | colony formation in response to olaparib [7]: severe reduction in colony formation
